These results are taken from ChEMBL document CHEMBL1201862, “PubChem BioAssay data set” (2004).

Active and inactive are the calls of the source.

The test system of experiment [1] is HEK293. The experiment can be described thus: cells. Conditions: Homo sapiens. It counts as functional, cell-based.
Experiment [2] relates to HEK293. As to the kind of experiment: cells. It counts as functional, cell-based. Conditions: Homo sapiens. The source holds these as a separate data set.
Experiment [3] is described as follows: blockers of CRF-binding protein–CRF-R2 complex – cell-based, uHTS hits, 384-well, dose response (AID 651639). It counts as functional, Homo sapiens. To be noted: read-out: IC50_Mean.
A further experiment has as its system Streptococcus. The experiment can be described thus: GAS UMAA2166 growth inhibition – luminescence, BacTiterGlo, counter-screen for streptokinase expression inhibitor project, dose response (AID 1915).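 Note: potency for reduction of bacterial viability or growth.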 It counts as functional, organism-based. In general terms: Counterscreens check selectivity or assay interference.
The subject of experiment [4] is HEK293. The experiment can be described thus: cells. To be noted: Homo sapiens.
The test system of experiment [5] is HEK293. The experiment can be described thus: inhibition of NOD1-driven NF-kB reporter – cell-based, luminescence, uHTS, primary screen (AID 1578). It counts as functional. Conditions: Homo sapiens.
Experiment [6] concerns HEK293. The experiment can be described thus: NOD2 signaling inhibitors in MDP-stimulated cells, cell-based, uHTS, luminescence (AID 2001). It counts as functional. Conditions: Homo sapiens.
For experiment [7], the system named is Streptococcus sp. 'group A'. The experiment can be described thus: Streptococcus pyogenes SK(-)GAS viability under kanamycin – luminescence, BacTiterGlo, confirmation, counter-screen for streptokinase expression inhibitor project, dose response (AID 1900). It counts as functional, organism-based.
The test system of another experiment is Escherichia coli. As to the kind of experiment: microbe, parasite or virus in culture.
A further experiment has as its target Tumor necrosis factor (Homo sapiens, UniProt P01375). As to the kind of experiment: analog potency on TNFa NF-kB signaling – cell-based, revised, SAR follow-up (AID 2337). It counts as functional.
Experiment [8] concerns the target T1, Nucleotide-binding oligomerization domain-containing protein 1 (Homo sapiens, UniProt Q9Y239).
T1 sequence (Q9Y239 whole entry): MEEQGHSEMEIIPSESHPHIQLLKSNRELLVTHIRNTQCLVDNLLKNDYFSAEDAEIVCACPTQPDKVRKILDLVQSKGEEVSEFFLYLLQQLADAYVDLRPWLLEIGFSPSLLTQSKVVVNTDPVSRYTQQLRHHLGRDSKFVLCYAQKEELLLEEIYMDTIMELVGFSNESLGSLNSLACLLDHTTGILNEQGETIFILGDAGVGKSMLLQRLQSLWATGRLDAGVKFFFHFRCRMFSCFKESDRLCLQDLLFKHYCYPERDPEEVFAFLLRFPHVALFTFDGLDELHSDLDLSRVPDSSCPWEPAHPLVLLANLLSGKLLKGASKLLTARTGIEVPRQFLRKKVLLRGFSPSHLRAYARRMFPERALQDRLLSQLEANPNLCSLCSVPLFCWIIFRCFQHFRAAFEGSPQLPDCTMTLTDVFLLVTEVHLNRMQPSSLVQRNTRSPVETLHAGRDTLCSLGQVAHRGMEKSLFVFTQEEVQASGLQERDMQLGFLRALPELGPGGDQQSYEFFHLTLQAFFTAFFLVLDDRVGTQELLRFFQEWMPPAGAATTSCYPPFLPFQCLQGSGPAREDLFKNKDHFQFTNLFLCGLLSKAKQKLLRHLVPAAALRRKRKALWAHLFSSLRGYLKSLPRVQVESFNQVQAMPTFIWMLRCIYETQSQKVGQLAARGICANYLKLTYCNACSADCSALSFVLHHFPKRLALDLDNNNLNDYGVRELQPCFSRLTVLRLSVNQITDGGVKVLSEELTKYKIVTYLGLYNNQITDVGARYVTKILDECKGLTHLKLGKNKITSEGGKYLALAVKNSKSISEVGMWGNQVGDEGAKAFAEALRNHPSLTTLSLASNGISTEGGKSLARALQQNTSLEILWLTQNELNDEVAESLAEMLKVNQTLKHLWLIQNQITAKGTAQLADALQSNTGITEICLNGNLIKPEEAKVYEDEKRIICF
The experiment can be described thus: blockers of NOD1 pathway activity – revised, SAR follow-up (AID 2333). It counts as functional.

In experiment [9] the target is T2, Ubiquitin-conjugating enzyme E2 N (Homo sapiens, UniProt P61088).
T2 sequence (P61088 whole entry): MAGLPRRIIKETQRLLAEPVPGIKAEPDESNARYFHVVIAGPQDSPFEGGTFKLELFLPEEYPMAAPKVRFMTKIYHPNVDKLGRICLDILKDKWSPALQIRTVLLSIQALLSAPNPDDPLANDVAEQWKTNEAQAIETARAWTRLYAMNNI
It counts as functional.

The target in a further experiment is T3, Bcl-2-related protein A1 (Mus musculus, UniProt Q07440).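 Note: confirmatory dose–response counterscreen on Bfl-1, used to check hits from a UBC13 polyubiquitin inhibitor campaign.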
T3 sequence (Q07440 whole entry): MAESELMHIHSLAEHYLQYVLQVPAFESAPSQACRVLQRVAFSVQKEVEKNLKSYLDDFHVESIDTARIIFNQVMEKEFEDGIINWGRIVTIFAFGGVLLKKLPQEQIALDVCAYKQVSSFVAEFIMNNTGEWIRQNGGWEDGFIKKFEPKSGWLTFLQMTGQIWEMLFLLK
It counts as functional.

For experiment [10], the target named is T2, Ubiquitin-conjugating enzyme E2 N. It counts as functional. The source holds these as a separate data set.
The test system of a further experiment is A-375. The experiment can be described thus: proliferation inhibition in MITF-low A375 cells – cell-based, cherry-pick samples, set 2, counter-screen for MITF modulator project, dose response (AID 540335). To be noted: Homo sapiens. It counts as functional.
A further experiment deals with INS1. As to the kind of experiment: INS-1E survival protection against cytokine death – cell-based, luminescence, retest, dose response (AID 449756).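 Note: cell death triggered by IL-1 beta plus TNF-alpha plus IFN-gamma mixture; protective hits raise ATP signal compared with cytokine alone wells.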 It counts as functional. To be noted: Rattus norvegicus.
Experiment [11] in a line: NIH3T3 cell viability loss – ATP luminescence, mouse fibroblasts, counter-screen, dose response (AID 2010).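 Note: cells exposed to compound for about 90 hours before reading.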 It counts as functional, cell-based.
Experiment [12] is described as follows: Trypanosoma cruzi growth suppression in host cells – NIH3T3 host cells, beta-gal luminescence, confirmation (AID 2044).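 Note: intracellular parasites grown in NIH/3T3 mouse fibroblasts as host cells; luminescent beta-galactosidase reporter signal from transgenic T. cruzi replicating inside host cells; inhibitors lower the luminescence signal.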 It counts as functional, cell-based.
Experiment [13] in a line: HEK-293T cell viability reduction – luminescence, B-cell screen hits, cytotoxicity control for BCR NF-kB inhibitor project, dose response (AID 489021).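 Note: HEK-293T cells carrying an NF-kB luciferase reporter; cells exposed to compound for about 14 hours before viability readout.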 It counts as functional, cell-based.
Experiment [14] addresses T4, Microphthalmia-associated transcription factor (Homo sapiens, UniProt O75030).
T4 sequence (O75030 whole entry): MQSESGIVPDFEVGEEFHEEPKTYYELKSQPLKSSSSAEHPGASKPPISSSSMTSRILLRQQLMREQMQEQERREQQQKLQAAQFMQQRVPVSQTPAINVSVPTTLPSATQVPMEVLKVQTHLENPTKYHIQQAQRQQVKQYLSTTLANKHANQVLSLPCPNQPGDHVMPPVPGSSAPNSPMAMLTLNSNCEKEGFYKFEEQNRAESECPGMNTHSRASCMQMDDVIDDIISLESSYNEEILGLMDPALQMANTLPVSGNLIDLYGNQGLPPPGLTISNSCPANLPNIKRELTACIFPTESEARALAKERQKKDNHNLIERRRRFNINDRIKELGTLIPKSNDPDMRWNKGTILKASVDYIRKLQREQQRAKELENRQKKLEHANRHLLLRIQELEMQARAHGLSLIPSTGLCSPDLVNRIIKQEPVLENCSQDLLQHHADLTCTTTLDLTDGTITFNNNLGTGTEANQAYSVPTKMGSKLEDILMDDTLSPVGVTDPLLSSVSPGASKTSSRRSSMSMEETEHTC
The experiment can be described thus: reducers of TRPM1 reporter luminescence, concentration series – cell-based, SK-MEL-5, cherry-picked, set 3, MITF inhibitor project, dose response (AID 493073).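 Note: SK-MEL-5 melanoma cells with luciferase driven by the MITF target TRPM1 promoter.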 It counts as functional.

The subject of a further experiment is HeLa. As to the kind of experiment: ATP-based viability loss in HeLa cells – cell-based, CellTiter-Glo luminescence, cherry-pick samples, cytotoxicity control for MITF activator project, dose response (AID 540259). It counts as functional. Conditions: Homo sapiens. Background: In ATP-based viability assays light output follows the ATP content of the culture.

Sequence of Tumor necrosis factor (P01375 whole entry, the tested form may be a part): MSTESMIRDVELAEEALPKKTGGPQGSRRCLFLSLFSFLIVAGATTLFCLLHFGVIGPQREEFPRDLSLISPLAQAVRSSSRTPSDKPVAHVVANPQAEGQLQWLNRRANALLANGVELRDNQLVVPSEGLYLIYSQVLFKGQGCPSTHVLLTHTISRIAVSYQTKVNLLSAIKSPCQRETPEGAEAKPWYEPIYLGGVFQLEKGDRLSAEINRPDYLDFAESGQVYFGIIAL

Broadly, the EC50 is the concentration at which the effect is half-maximal. As for `Cc1ccc(SCc2cc(O)nc(SCC(=O)Nc3cc(Cl)ccc3Cl)n2)cc1`, the IC50 in the experiment on HEK293 [1] is > 20 µM (inactive); with HEK293 [2] it was > 20 µM (inactive); in [3], > 20 µM (inactive); with HEK293 [4], > 20 µM (inactive); in the experiment on HEK293 [6] it was 9.47 µM (inactive). Besides, the results for the 50% effective concentration (EC50) (in the experiment with Streptococcus; in the experiment on HEK293 [5]; in experiment [7]) were 38.5 µM (active), 6.75 µM (active) and 9.13 µM (active), respectively.
By AC50 is commonly meant the concentration at which the activity in the assay is half-maximal. Take `CCOc1ccc(NC(=O)CNC(=O)Cc2ccccc2)cc1`: the AC50 with Escherichia coli is 25 µM (active).
As to `COc1ccc2oc(C[S+]([O-])c3ccccc3)c(C(=O)O)c2c1` (stereo not drawn), the IC50 (at Tumor necrosis factor; in the experiment with HEK293 [4]; in experiment [8]) was > 20 µM (inactive) each time.
Consider `CCC(C)(C)c1ccc(OCCCC[n+]2ccccc2)c(C(C)(C)CC)c1`, for which the IC50 is 16.9 µM (active) in experiment [9], > 20 µM (inactive) at Bcl-2-related protein A1, 17.3 µM (active) in [10] and 59.7 µM (inactive) in experiment [13]. Further, the AC50 in the experiment on A-375 was 22.9 µM (active); in the experiment on INS1, 2 µM (active); in experiment [14] it was 4.35 µM (active). For the same molecule, the EC50 in [11] is 19.7 µM (active); in experiment [12], 0.357 µM (active).
As for `CCOC(=O)C1(c2nc(N)cs2)COC(=O)C1` (stereo not drawn), the AC50 in the experiment on Escherichia coli is 24.9 µM (active).
For `COC(=O)Cn1c(C)nc2c(sc3nc(C)cc(C)c32)c1=O`, the AC50 in the experiment on HeLa is > 350 µM (inactive).
